# Measurements reported in US4350697A, “Antidepressant and neuroleptic benzothiopyrano [2,3-c]-pyridines” (Roussel Uclaf, priority 1980, dated 1982).
# Structures can show the parent of a compound that is named as a salt.
# Assays:
# [1] = biological target: neuroleptic receptors (frontal cortex membranes, major serotonergic component); assay: [3H] spiroperidol receptor binding displacement on frontal cortex membranes (test A); details: [3H] spiroperidol 0.19 nM, rat frontal cortex membranes, 37° C., 10 minutes
# Source text: A. [^3 H] Spiroperidol binding to neuroleptic receptors in membranes prepared from the striatum and frontal cortex of rats
# The binding of [^3 H] spiroperidol to frontal cortex membranes appears to entail a major serotonergic component, whereas in striatal membranes the binding is predominantly dopaminergic [Leysen et al, Nature Vol. 272 (1978) p. 168-171] The ability of drugs to displace this radioligand from the frontal cortical receptors matches their activity in other models of serotonergic function, both for agonists and antagonists. Likewise, in striatal membranes, such activities predict the antidopaminergic action of neuroleptic drugs.
# [Phenyl-4(n)-^3 H] spiroperidol (Radiochemical Centre, TRK 570 21 Ci/mmol was used as the labelled ligand supplied as a 250 μCi/250 μl solution in ethanol and this solution was diluted 3.2/10,000 in assay buffer and 0.1 ml of this was added to 2 ml of binding assay.
# =0.19 nM [^3 H] spiroperidol
# The assay buffer was a modified 50 mM Tris HCl buffer with a pH of 7.6 and containing 120 mM of sodium chloride, 5 mM of potassium chloride, 1 mM of magnesium chloride, 2 mM of calcium chloride, 10 μM of pargyline and 0.1% of ascorbic acid.
# The membrane preparation involved dissecting the frontal cortices or striata from 4 male CFHB rats according to J. Glowinski et al [Eur. J. Pharmacol., Vol. 49, (1978), P. 201-202]. The frontal cortex was taken as that cortical tissue in `C`, dorsal to a horizontal reference line passing through the point where the olfactory bulbs join the frontal cortex. The animals were killed by cervical dislocation and the dissected tissue was homogenized in 20 volumes of ice cold 0.32 M sucrose with a Teflon/glass homogeniser. The homogenate was centrifuged at 1000 g for 10 minutes and the resulting supernatant was recentrifuged at 30,000 g for 30 minutes. The supernatant was discarded and the pellet was resuspended by homogenization in 30 volumes of ice cold assay buffer.
# Non-specific binding was accounted for by the inclusion of 1 μM (+) butaclamol in blank binding assays and this required a stock solution of 20 μM in distilled water. Solutions of displacing compounds were prepared at 20x final assay concentration in distilled water.
# Binding assays of 1.3 ml assay buffer, 0.5 ml membrane suspension, 0.1 ml distilled H2 O or drug solutions and 0.1 ml [^3 H] spiroperidol dilution were made up in ice with the [^3 H] spiroperidol being added last and incubated at 37° C. for 10 minutes. The bound ligand was separated by filtration through Whatman GF/C filters under vacuum followed by 2×10 ml rinses of ice cold assay buffer. The filters were dried at 80° C. and counted in 5 ml volumes of ECONOFLUOR (NEN). All binding assays, controls, blanks and each displacer concentration were run in triplicate. The [^3 H] spiroperidol receptor binding displacement results on frontal cortex membranes (test A) and on striatal membranes (test B) are given in Table III below and the results are expressed as IC50 (nM).
# [2] = biological target: α-noradrenergic receptor; assay: [3H] WB-4101 receptor binding displacement, rat cortical membranes (test C); details: [3H] WB-4101 0.25 nM, 25° C., 15 minutes
# [3] = biological target: Muscarinic chloinergic receptor; type: binding; details: [3H] QNB 0.3 nM, rat forebrain membranes, 25° C., 1 hour; read-out: IC50 test D
# [4] = system: hypothermia induced by apomorphine; assay: Reversal of apomorphine hypothermia in mice (test E); type: in vivo; details: Mus musculus, ip; male CD/l mice, test drug i.p. 30 minutes before apomorphine hydrochloride 16 mg/kg s.c.; rectal temperature 30 minutes later; read-out: ED50 for the reversal of the hypothermia induced by apomorphine HCl in mice (test E)
# Experimental: D. Reversal of apomorphine hypothermia in mice
# Whereas the reversal of the hypothermia induced in mice by low doses of apomorphine is a characteristic of classical neuroleptic agents, the hypothermia induced by high doses of this agent is specifically reversed by antidepressant drugs [Puech et al., In `Advances in Pharmacology and Therapeutics Vol., 5` ed. Dumont, c. Pergamon p. 171-176 (1979)]. Groups of 10 male CD/l mice (16-22 g) were dosed with vehicle or test drug intraperitoneally 30 minutes prior to the subcutaneously injection of apomorphine hydrochloride at 16 mg/kg. The rectal temperatures were recorded 30 minutes later using a rectal thermometer with digital readout.
Compound,IC50 [1],IC50 [2],IC50 [3],ED50 [4]
Cc1cccc(C)c1C1=C2CCN(C)CC2Sc2ccccc21 (stereo not drawn) [Example 23],0.331 µM,0.617 µM,4.37 µM,> 40 mg/kg
Cc1ccccc1C1=C2CCN(C)CC2Sc2ccccc21 (stereo not drawn) [Example 10],0.105 µM,0.813 µM,8.13 µM,80 mg/kg
CN1CCC2=C(c3ccccc3)c3cccc(Cl)c3SC2C1 (stereo not drawn) [Example 20],0.304 µM,1.05 µM,67.8 µM,–
CN1CCC2=C(c3ccccc3)c3ccc(Cl)cc3SC2C1 (stereo not drawn) [Example 21],1.14 µM,3.02 µM,58.9 µM,> 100 mg/kg
"CN1CCC2=C(c3ccccc3)c3ccccc3SC2C1.Cl (stereo not drawn) [Example 1, 2-methyl-5-phenyl-1,3,4,10a-tetrahydro-2H-[1]-benzothiopyrano[2,3-c]pyridine hydrochloride]",0.25 µM,0.394 µM,14 µM,30 mg/kg
"Cc1ccc(C2=C3CCN(C)CC3Sc3ccccc32)cc1 (stereo not drawn) [Example 3, 2-methyl-5-(4-tolyl)-1,3,4,10a-tetrahydro-2H[1]benzothiopyrano[2,3-c]pyridine]",0.025 µM,0.029 µM,73.6 µM,20 mg/kg
Cc1cccc2c1SC1CN(C)CCC1=C2c1ccccc1 (stereo not drawn) [Example 18],0.174 µM,0.794 µM,38.9 µM,> 40 mg/kg
CN1CCC2=C(c3ccccc3)c3cc(Cl)ccc3SC2C1 (stereo not drawn) [Example 13],1.48 µM,0.355 µM,47.9 µM,> 40 mg/kg
CCCOc1ccc(C2=C3CCN(C)CC3Sc3ccccc32)cc1 (stereo not drawn) [Example 11],1.25 µM,6.76 µM,> 100 µM,22 mg/kg
Cc1ccc(C2=C3CCN(C)CC3Sc3ccccc32)cc1C (stereo not drawn) [Example 14],0.155 µM,0.502 µM,> 100 µM,30 mg/kg
c1ccc(C2=C3CCNCC3Sc3ccccc32)cc1 (stereo not drawn) [Example 17],0.624 µM,0.676 µM,19.5 µM,35 mg/kg
CCN1CCC2=C(c3ccccc3)c3ccccc3SC2C1 (stereo not drawn) [Example 12],0.398 µM,0.502 µM,19 µM,–
CN1CCC2=C(c3ccc(Cl)cc3)c3ccccc3SC2C1 (stereo not drawn) [Example 2],0.602 µM,0.692 µM,> 100 µM,> 40 mg/kg
COc1ccc(C2=C3CCN(C)CC3Sc3ccccc32)cc1 (stereo not drawn) [Example 4],0.131 µM,0.12 µM,62 µM,15 mg/kg
"CN1CCC2=C(c3ccc(N(C)C)cc3)c3ccccc3SC2C1 (stereo not drawn) [Example 6, 2-methyl-5-(4-dimethylaminophenyl)-1,3,4,10a-tetrahydro-2H[1]benzothiopyrano[2,3-c]pyridine]",0.112 µM,0.1 µM,> 100 µM,–
CN1CCC2=C(c3ccc(Cl)c(Cl)c3)c3ccccc3SC2C1 (stereo not drawn) [Example 8],0.537 µM,0.631 µM,> 100 µM,–
Cc1ccc2c(c1)C(c1ccccc1)=C1CCN(C)CC1S2 (stereo not drawn) [Example 22],2.45 µM,12.5 µM,> 100 µM,> 100 mg/kg
CN1CCC2=C(c3cccc(Cl)c3)c3ccccc3SC2C1 (stereo not drawn) [Example 5],0.427 µM,1.95 µM,16.2 µM,> 40 mg/kg
Cc1ccc2c(c1)SC1CN(C)CCC1=C2c1ccccc1 (stereo not drawn) [Example 16],0.708 µM,1.45 µM,29.5 µM,–
Cc1cc(C)c(C2=C3CCN(C)CC3Sc3ccccc32)c(C)c1 (stereo not drawn) [Example 24],0.308 µM,0.617 µM,1.18 µM,> 40 mg/kg
"CN1CCC2=C(c3ccc(N)cc3)c3ccccc3SC2C1.Cl (stereo not drawn) [Example 15, 5-(4-aminophenyl)-2-methyl-1,3,4,10a-tetrahydro-2H-[1]benzothiopyrano[2,3-c]pyridine hydrochloride]",0.158 µM,0.372 µM,7.94 µM,5 mg/kg
Cc1cccc(C2=C3CCN(C)CC3Sc3ccccc32)c1 (stereo not drawn) [Example 7],0.251 µM,0.813 µM,8.71 µM,> 40 mg/kg
"Cc1ccc(C2=C3CCN(C)CC3Sc3ccccc32)c(C)c1 (stereo not drawn) [Example 19, 2-methyl-5-(2,4-dimethylphenyl)-1,3,4,10a-tetrahydro-2H-[1]benzothiopyrano[2,3-c]pyridine hydrochloride]",0.032 µM,0.023 µM,42.7 µM,–
CCc1ccc(C2=C3CCN(C)CC3Sc3ccccc32)cc1 (stereo not drawn) [Example 9],0.05 µM,0.059 µM,> 100 µM,> 40 mg/kg
